Results from patent publication US20240150322A1, “CDK9 Inhibitors” (Biolexis Therapeutics, Inc., priority 2022, published 2024).
Read-outs that look alike come from different tables or passages of the source.

Legend:
[1] = tested on: LASCPC-01 induced neuroendocrine prostate cancer (NEPC) CDX; test: In vivo tumor efficacy study 2, LASCPC-01 NEPC CDX; parameters: species or system Nu/Nu (Balb/c background) mice
Experimental: Change in animal weight during a study is an additional indicator of tolerability. All animal weights are recorded. Tumor volumes were measured by digital caliper and volume was calculated using the formula [Width^2×Length]/2. All tumor volume measurements are recorded. […] Dose dependent tumor growth inhibition (TGI) was evident by observation.
50 and 80 mg/kg groups had mice drop from study starting on day 5.

C4-2B = test: 2D CellTiter-Glo cell viability assay; type: cell-based
Experimental: (§1) CellTiter-Glo® 2.0 Luminescent cell viability assay reagent was purchased from Promega and 22Rv1, LASCPC-01, C4-2, C4-2B and NCI-H660, DU-145, PC-3 and LNCap cell lines were obtained from ATCC and a clinical core facility at Huntsman Cancer Institute. […] The results of cell viability were obtained and IC50 values were calculated (see Table 5, below) showing sub-micromolar cell killing of these prostate cancer cells.

22Rv1 [2] = test: Annexin V/7-AAD apoptosis assay; type: cell-based
TAOK1 = TAOK1 (Homo sapiens, UniProt Q7L7X3); test: scanMAX panel and Kd follow-up; type: binding
TAOK1, sequence (Q7L7X3 whole entry): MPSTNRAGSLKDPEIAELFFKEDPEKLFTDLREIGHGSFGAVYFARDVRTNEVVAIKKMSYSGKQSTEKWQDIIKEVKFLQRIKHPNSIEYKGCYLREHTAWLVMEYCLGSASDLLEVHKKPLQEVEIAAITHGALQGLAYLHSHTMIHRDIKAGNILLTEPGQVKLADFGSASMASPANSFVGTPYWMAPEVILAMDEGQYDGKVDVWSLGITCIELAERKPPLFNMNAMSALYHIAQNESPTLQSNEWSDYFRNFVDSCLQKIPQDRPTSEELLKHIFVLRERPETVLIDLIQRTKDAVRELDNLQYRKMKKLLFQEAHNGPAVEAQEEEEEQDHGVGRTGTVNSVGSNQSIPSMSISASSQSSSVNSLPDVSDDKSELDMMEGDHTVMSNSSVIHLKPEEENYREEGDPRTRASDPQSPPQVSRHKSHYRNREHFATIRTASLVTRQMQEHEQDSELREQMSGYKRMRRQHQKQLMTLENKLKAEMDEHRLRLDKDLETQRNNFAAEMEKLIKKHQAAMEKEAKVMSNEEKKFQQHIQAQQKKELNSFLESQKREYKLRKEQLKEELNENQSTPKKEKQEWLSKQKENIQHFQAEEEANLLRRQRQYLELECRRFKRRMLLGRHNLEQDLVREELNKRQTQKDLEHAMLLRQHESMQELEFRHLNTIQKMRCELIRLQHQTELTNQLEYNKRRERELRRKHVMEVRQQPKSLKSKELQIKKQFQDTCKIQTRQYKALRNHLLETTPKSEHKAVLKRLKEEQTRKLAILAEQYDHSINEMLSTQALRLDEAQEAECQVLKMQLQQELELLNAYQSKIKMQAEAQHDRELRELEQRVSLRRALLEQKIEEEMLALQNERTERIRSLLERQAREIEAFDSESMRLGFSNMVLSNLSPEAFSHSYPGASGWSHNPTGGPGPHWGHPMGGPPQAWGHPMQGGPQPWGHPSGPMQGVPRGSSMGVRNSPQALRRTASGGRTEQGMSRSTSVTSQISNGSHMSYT

CDK9/CycT1 = molecular target: T1, CDK9/CycT1 (Homo sapiens, UniProt P50750); test: ADP-Glo kinase assay; type: biochemical
T1 construct: purchased SignalChem
T1 sequence (P50750 whole entry): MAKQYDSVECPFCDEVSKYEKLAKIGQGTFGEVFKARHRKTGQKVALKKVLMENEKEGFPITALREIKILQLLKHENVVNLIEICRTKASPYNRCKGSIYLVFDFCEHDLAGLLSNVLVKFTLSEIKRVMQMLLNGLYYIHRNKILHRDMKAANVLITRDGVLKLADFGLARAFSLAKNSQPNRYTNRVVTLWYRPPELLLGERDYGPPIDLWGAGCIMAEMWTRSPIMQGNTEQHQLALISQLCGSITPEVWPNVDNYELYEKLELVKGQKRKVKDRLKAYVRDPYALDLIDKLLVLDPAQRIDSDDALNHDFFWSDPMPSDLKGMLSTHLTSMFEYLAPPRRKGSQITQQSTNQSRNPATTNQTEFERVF
T1 sequence (O60563 whole entry partner): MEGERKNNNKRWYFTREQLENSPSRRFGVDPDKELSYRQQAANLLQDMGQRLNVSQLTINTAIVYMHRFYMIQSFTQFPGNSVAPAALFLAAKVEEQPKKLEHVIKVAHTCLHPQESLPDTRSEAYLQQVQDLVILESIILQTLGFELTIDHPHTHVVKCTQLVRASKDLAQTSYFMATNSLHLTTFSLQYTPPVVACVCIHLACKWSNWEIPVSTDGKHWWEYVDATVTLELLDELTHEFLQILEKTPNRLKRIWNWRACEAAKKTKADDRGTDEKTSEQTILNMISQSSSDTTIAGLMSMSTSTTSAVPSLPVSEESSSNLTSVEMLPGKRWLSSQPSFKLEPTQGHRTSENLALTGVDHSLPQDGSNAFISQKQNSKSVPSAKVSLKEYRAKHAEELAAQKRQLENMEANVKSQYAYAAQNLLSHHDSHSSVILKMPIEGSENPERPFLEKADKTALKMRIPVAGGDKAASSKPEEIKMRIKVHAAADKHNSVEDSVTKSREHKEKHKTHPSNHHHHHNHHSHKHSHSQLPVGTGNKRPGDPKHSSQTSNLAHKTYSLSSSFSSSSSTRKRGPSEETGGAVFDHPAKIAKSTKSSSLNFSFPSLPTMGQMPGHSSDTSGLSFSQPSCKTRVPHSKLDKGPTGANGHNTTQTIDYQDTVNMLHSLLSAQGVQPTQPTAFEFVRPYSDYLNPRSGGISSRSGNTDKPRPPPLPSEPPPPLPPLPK
Experimental: ADP-Glo assay kit was purchased from Promega and the CDK9/CycT1 protein and PDKtide substrate were purchased from SignalChem. […] The reaction was started by pre-incubating 4 μL of protein (20 nM), 2 μL of substrate (100 μM), and 2 μL of serial diluted drug in 1× assay buffer (50 mM HEPES, 3 mM MgCl2, 3 mM MnCl2, and 1 mM DTT) for 30 minutes. After pre-incubating, 4 μL of ATP (1 μM) was added to each well and incubated for an additional 90 minutes. The ADP-Glo Reagent (10 μL) and Kinase Detection Reagent (20 μL) were added to each well and incubated as recommended by Promega. The reaction was quantified by measuring luminescence and the IC50 was calculated using GraphPad Prism software.

hERG channel = molecular target: T2, hERG channel (Homo sapiens, UniProt Q12809); test: Predictor hERG Fluorescence Polarization Assay; type: binding
T2 construct: purchased
T2 sequence (Q12809 whole entry): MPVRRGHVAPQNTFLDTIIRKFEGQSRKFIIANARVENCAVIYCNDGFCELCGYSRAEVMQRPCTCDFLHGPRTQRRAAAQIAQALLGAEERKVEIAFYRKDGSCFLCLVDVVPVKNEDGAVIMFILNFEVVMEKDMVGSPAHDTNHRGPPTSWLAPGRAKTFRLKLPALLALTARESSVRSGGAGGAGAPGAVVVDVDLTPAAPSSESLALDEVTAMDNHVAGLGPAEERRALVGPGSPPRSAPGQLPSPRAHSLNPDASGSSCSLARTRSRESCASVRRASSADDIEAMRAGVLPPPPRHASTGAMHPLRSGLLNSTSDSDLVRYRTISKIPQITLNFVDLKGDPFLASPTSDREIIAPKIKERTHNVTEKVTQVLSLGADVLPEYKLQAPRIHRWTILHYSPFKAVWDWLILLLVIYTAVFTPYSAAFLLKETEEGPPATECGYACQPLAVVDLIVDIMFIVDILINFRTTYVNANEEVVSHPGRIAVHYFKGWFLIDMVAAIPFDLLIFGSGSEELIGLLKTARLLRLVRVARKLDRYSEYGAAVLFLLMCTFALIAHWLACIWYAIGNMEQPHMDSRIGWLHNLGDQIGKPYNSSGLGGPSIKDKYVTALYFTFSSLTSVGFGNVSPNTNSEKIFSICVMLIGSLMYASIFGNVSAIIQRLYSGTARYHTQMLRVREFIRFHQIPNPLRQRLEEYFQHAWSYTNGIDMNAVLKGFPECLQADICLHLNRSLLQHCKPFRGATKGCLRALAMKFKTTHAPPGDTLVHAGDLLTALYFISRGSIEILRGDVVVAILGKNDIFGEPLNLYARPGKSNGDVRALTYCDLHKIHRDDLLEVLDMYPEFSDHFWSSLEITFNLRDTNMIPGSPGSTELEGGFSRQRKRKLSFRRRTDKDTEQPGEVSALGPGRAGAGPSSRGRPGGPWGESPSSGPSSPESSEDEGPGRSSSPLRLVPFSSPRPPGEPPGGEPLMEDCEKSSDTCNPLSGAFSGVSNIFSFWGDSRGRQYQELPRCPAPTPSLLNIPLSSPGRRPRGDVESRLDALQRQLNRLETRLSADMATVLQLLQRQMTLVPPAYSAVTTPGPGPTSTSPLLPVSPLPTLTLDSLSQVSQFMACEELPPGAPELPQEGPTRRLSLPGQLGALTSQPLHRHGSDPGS
From the text: The Predictor™ hERG Fluorescence Polarization Assay Kit was used to perform hERG channel biochemical binding studies in the absence of radioligand. Assay performance was validated with a panel of established hERG channel blockers.

[3] = tested on: C4-2 human neuroendocrine prostate cancer xenograft; test: In vivo tumor efficacy study 3, C4-2 xenograft
CDK9 = CDK9 (Homo sapiens, UniProt P50750); test: DiscoveRx KINOMEscan (KdELECT, scanMAX panel); type: binding
CDK9, sequence (P50750 whole entry): as the sequence (P50750 whole entry) above
Experimental: CDKs family kinases profiling assays were performed with DiscoveRx Matrix of Kds KINOMEscan (KdELECT) and Reaction Biology using miniaturized radioisotope-based assay platform (^33P). IC50 value estimated based on the best curve fitting available.

[4] = tested on: RWPE-1 Normal Prostate Cells; test: LDH-Glo cytotoxicity assay in normal prostate cells; type: cell-based; details: Homo sapiens, 72 hours
Experimental: Multiplexing the LDH-Glo Cytotoxicity Assay and CellTiter-Glo 2D Cell Viability Assay. […] Change in toxicity was measured using the LDH-Glo Cytotoxicity Assay by combining 50 μL diluted samples with 50 μL LDH Detection Reagent and recording luminescence after 1 hour incubation. After samples were removed for LDH measurement, an equal volume of CellTiter Glo 2D Reagent was added to the remaining cell suspension and luminescence was recorded after 30-minute incubation period.

[5] = Pharmacokinetic study in male Beagle dogs; type: in vivo; details: dog, plasma; for Tmax: read-out: Tmax (hours), median (min-max); for Vd: male, Beagle, iv, 1 mg/kg
Experimental: Last time of mean concentrations was 24 hours following intravenous bolus injection.

C4-2 [6] = test: 2D CellTiter-Glo cell viability assay; type: cell-based, human
Experimental: as §1

Prostate cancer cells = test: Colony formation assay 2; type: cell-based; details: 0.123 to 10 μM for 72 hours
C4-2 [7] = test: Annexin V/7-AAD apoptosis assay; type: cell-based; details: C4-2, treated for 72 hours
22Rv1 [8] = test: 2D CellTiter-Glo cell viability assay; type: cell-based; details: Homo sapiens; 22Rv1, 72 hours
Experimental: (§2) CellTiter-Glo® 2.0 Luminescent cell viability assay reagent was purchased from Promega and 22Rv1 and LASCPC-01 cell lines were purchased from ATCC. […] An equal volume of CellTiter-Glo 2D Reagent was added to the cell suspensions and luminescence was recorded after 30-minute incubation period. […] FIG. 2 illustrates cellular antiproliferative efficacy of a benchmark CDK9 inhibitor AD-4573 on six prostate cancer cell lines over various concentrations.
as §1

DU-145 = test: 2D CellTiter-Glo cell viability assay; type: cell-based; details: Homo sapiens; DU-145, 72 hours
Experimental: as §2, §1

LNCap = test: 2D CellTiter-Glo cell viability assay; type: cell-based; details: Homo sapiens, 72 hours
Experimental: as §2, §1

LASCPC-01 = test: 2D CellTiter-Glo cell viability assay; type: cell-based; details: LASCPC-01, 72 hours
Experimental: as §2, §1

NCI-H660 = test: 2D CellTiter-Glo cell viability assay; type: cell-based; details: NCI-H660, 72 hours
Experimental: as §2, §1

## CC(C)c1c2cc(-c3ccnc(N[C@H]4CC[C@H](N)C4)n3)ccc2nn1C [Compound I-2, (1S,3S)-[3-[4-(3-isopropyl-2-methylindazol-5-yl)pyrimidin-2-yl]aminocyclopentan-1-yl]-1,3-diamine]
[1]; LASCPC-01, 50 mg/kg group
  tumor growth inhibition throughout the course of the study: > 80%
[1]; LASCPC-01, 50 mg/kg group, early in the study
  maximal tumor growth inhibition: ~100%
[1]; LASCPC-01, 80 mg/kg group, day 5
  maximal growth inhibition: 117%
[1]; LASCPC-01, 30, 50, 65, 80 mg/kg
  tumor growth: inhibit tumor growth in a dose dependent manner
C4-2B; 72 h
  IC50: 31 nM
C4-2B; 72 hours
  IC50: 31.9 nM
22Rv1 [2]; 22Rv1
  apoptosis by Annexin V/7-AAD staining: increased apoptosis in a dose dependent manner
22Rv1 [2]; 22Rv1, treated for 72 hours
  cell death: 71%
TAOK1; TAOK1
  Kd: 19 nM
TAOK1; TAOK1, 1 μM, read-out: % of control activity
  remaining binding at 1 µM: 0 to 1%
CDK9/CycT1
  IC50: < 50 nM
hERG channel
  hERG activity: no hERG activity
hERG channel; fluorescence polarization
  IC50: 57800 nM
[3]; C4-2, 50-30 mg/kg p.o., day 21
  decrease in tumor weight as compared to vehicle control group: 48.72%
[3]; C4-2, 50-30 mg/kg p.o., days 18 to 21
  tumor volume as compared to vehicle control group: significant decrease tumor volume
[3]; C4-2, 50-30 mg/kg p.o., terminal day 21
  tumor growth inhibition from vehicle control group: 43.25%
[3]; C4-2 study, 50-30 mg/kg p.o., starting at day 4
  body weight as compared to vehicle control group: significant body weight loss
[3]; C4-2 study, mouse that died
  severe body weight loss: ~15%
CDK9; CDK9, 1 μM
  activity in scanMAX panel: 2.7%
CDK9; CDK9/cyclinT
  Kd: 4.2 nM
[4]
  IC50: 6700 nM
[5]; IV 1 mg/kg
  half-life: 4.26 h
  AUC: 529 ± 200 ng·h/mL
  AUC(0-inf): 566 ± 191 ng·h/mL
  MRT: 3.82 ± 1.25 h
  clearance: 31.8 ± 10.7 mL/min/kg
  Tmax: 0.08 h
[5]; oral 3 mg/kg
  half-life: 5.81 h
  AUC: 1300 ± 233 ng·h/mL
  AUC(0-inf): 1340 ± 242 ng·h/mL
  Cmax: 373 ± 238 ng/mL
  MRT: 4.92 ± 0.97 h
  Tmax: 1 h
[5]; IV 1 mg/kg, extrapolated concentration at time zero
  C0: 312 ± 98.3 ng/mL
[5]; oral 3 mg/kg vs IV 1 mg/kg, from nominal doses and AUCinf, read-out: % F (oral bioavailability)
  bioavailability: 83 ± 22%
[5]; IV 1 mg/kg, read-out: Vd
  Vd: 11.3 ± 2.93 L/kg
[5]; IV 1 mg/kg, read-out: Vss
  Vd: 9.35 ± 2.74 L/kg
C4-2 [6]; C4-2, 72 hours
  IC50: 28.2 nM
C4-2 [6]; Homo sapiens, C4-2, 72 h
  IC50: 28 nM
Prostate cancer cells
  colony formation: complete inhibition of colony formation
C4-2 [7]
  cell death: 84%
22Rv1 [8]
  IC50: 132 nM
DU-145
  IC50: 7720 nM
LNCap
  IC50: 80.4 nM
LASCPC-01; 72 h
  IC50: 58 nM
LASCPC-01
  IC50: 58 nM
NCI-H660
  IC50: 448 nM
